Test results taken from patent US20240408175A1, “BMP9 OR AN AGONIST THEREOF AND ITS USES RELATED TO REDUCING METASTASIS OF CANCER” (THE UAB RESEARCH FOUNDATION, priority 2021, published 2024).

What was measured:
[1] = test system: OC cell lines (PA1, OVCA420, OVCAR3, SKOV3, OVCA433); assay: Live/Dead analysis under anchorage independence (anoikis), panel of OC cell lines; assay type: cell-based, human; details: 10 nM for 24 hours after 48 hours anchorage independence
[2] = Overall toxicity of daily i.p. BMP9 (body weight, kidney and liver function tests); assay type: in vivo; details: up to 3 weeks
Procedure: All animal studies were performed in accordance with the Institutional Animal Care and Use Committee at the University of Alabama Birmingham. Female SCID mice (Key resources table) at 5-7 weeks of age were housed under pathogen-free conditions at the Animal Research Facility at UAB. 1.5×10^6 GFP-luciferase SK-OV3 cells or 3×10^6 GFP-luciferase expressing PA1 cells were intraperitoneally injected. Mice were monitored daily, with girth and weight measurement taken twice a week. Tumor progression was tracked weekly using the IVIS Lumina III In vivo Imaging System (Caliper Life Sciences, MA) at UAB's Small Animal Imaging Facility. rhBMP9 was administered at the time of tumor cell injection followed by daily intraperitoneal (i.p.) injections of 1 mg/mL in 4 mM HCl+PBS+DI water (Vehicle), to achieve a final 5 mg/kg dose. For metastasis and tumor growth analysis, mice were euthanized between 21-50 days depending on the cell line. At necropsy, ascites, if present, were collected and volumes measured when possible, tumor weights in the omentum and other organs were recorded and collected when possible. For survival studies, mice that reached end-point criteria, including continued weight loss, respiratory trouble and permanent recumbency were euthanized. […]

[3] = ELISA of BMP9 in plasma from mice; assay type: in vivo; details: PA1-luc-GFP mice, daily i.p. administration
PA1 cells = assay: Microarray transcription profile under anchorage independence; assay type: cell-based, human; details: 24 h, 2-fold change criterion
Procedure: (§1) Lysate and RNA preparation: 100,000-300,000 cells were seeded in a poly-HEMA coated 6-well plate for indicated times in full serum unless indicated otherwise. Cells were collected by centrifugation and lysed with trizol for RNA extraction or direct 2× lysis buffer for protein lysates.
Total cellular RNA was extracted using Trizol reagent according to the manufacturer's protocol. RNA quality was determined using an Agilent 2100 Bioanalyzer and an RNA 6000 Nano kit (Agilent, Cat. No. 5067-1511) with RNA integrity numbers (RIN) ranging from 9.8 to 10. Microarray analyses were performed on the GeneChip™ Human Gene 2.0 ST ArrayS (Thermo Fisher Scientific, Cat. No. 902112) by the functional genomic core at University of South Carolina. Data were imported into the Affymetrix GeneChip Expression Console 1.4.1.46 and processed at the gene-level using the Robust Multichip Analysis (RMA) algorithm to generate CHP files. Experimental-group specific transcriptional responses were determined using unpaired one-way between-subject analysis of variance (ANOVA). Differentially expressed genes with p-values smaller than 0.05 and fold change higher than 2.0 and lower than −2.0 were used for further bioinformatics analysis.

OCT4 or NANOG = assay: qRT-PCR of OCT4 and NANOG under 3D condition; assay type: cell-based, human; details: PA1 cells
Procedure: as §1

[4] = test system: 1-kb SOX2 promoter reporter; assay: pGL3-SOX2 promoter-reporter luciferase assay in HEK293 cells; assay type: cell-based, human; details: 10 nM, 24 hours, serum-free
Procedure: HEK293 cells were transfected with the pGL3-SOX2 promoter-luciferase reporter plasmid construct and SV40-renilla for 24h. […] According to the manufacturer's instruction, cells were collected and lysed in […] passive lysis buffer. To measure luciferase activity, […] of lysate was added to […] of dual Luciferase Assay Reagent, and luminescence was quantitated using a luminometer (Biotek).

SOX2 promoter = assay: Chromatin immunoprecipitation (ChIP) at SOX2 promoter regions; assay type: cell-based, human
Procedure: ChIP was carried out using a modified version of a previously described protocol (Medeiros et al., 2009). Cells were grown to 80% confluency in 150 mm culture dishes. Cells were fixed at room temperature in 1% Paraformaldehyde solution (dilute 8% PFA in serum free media to get 1%) and rocked for 10 minutes. 10×Glycine was added to the plate and allowed to sit for 5 minutes at room temperature. Cells were scraped down and cell suspension were transferred to a cold centrifuge tube for centrifugation at 720 RCF at 4° C. for 10 minutes. Cells were rinsed with 1X Phosphate buffer saline and centrifugation repeated. Cell pellet was next resuspended in lysis buffers described in (Medeiros et al., 2009) to obtain nuclei pellet. This was followed by chromatin sonication, using QSonica sonicator (model CL-188) for four cycles (30% amplitude for 15 secs ON and 30 secs OFF) to obtain DNA fragments with a length from 150 to 300 bp. 1/10th of the supernatant was stored as input control. ChIP was performed using Protein A magnetic beads (Dynabeads, Invitrogen #10001D) to couple […] ChIP-grade antibodies for SMAD1, SMAD3, H3K27me3, H3K4me3, or rabbit IgG antibody overnight at 4 °C. DNA was purified using the PureLink Quick PCR Purification kit (Thermo Fisher Cat #: K310001) and enrichment of DNA fragments analyzed via relative quantitative RT-PCR (qPCR) using ChIP primers (see Table 2) to specific locations. Negative and positive control regions were included in all analysis.

HEY parental cells = assay: Cell survival under anchorage independence, HEY parental; assay type: cell-based, human; details: 1, 5, 10 nM for 24, 48, and 72 hours
Procedure: (§2) For Live/Dead analysis under anchorage independence, 1,000 cells were seeded in 96-well hydrogel-coated ultra-low attachment (ULA) plates (Corning #4515) for times indicated. Growth factor treatment was done under low serum 2.5% FBS condition (Cells were plated in 10% FBS to allow spheroid formation before beginning treatment). Cells were then stained with 2 μM Calcein-AM and 4 μM Ethidium-homodimer for 30 min before imaging. z-stacked images were obtained using the Zeiss LSM700 Confocal microscope (Microscopy and Flow Cytometry Core, University of South Carolina) and NIKON A1 Confocal microscope (UAB High Resolution Imaging Facility). Fluorescent quantification was performed using ImageJ Fiji software to calculate the Corrected Total Cell Fluorescent (CTCF)=Integrated Density−(Area of selected cell×Mean fluorescence of background readings) per spheroid.

HEYT30 cells = assay: Cell survival under anchorage independence, HEYT30; assay type: cell-based, human
Procedure: as §2

A2780ip2 cells = assay: Cell survival under anchorage independence, A2780ip2; assay type: cell-based, human; details: dose and time course
Procedure: as §2

For “BMP9: recombinant human bone morphogenetic protein 9 (BMP9/GDF2), TGF-β family ligand”, the “percentage of dead cells” value [1] was “increase”, the “overall toxicity (body weight, kidney and liver function tests)” value [2] was “no notable toxicity” and the “BMP9 in plasma (ELISA)” value [3] was “elevated”. The downregulated genes (PA1 cells) was 210, the upregulated genes (PA1 cells) was 333 and the differentially expressed genes (PA1 cells; p<0.05) was 543. For the same substance, the “effect on OCT4 or NANOG” value (OCT4 or NANOG) was “did not have any significant effect”, the “luciferase activity of SOX2 promoter reporter” value [4] was “significantly reduce” and the “SMAD1 binding at sites p1 and p6 (ChIP)” value (SOX2 promoter; 1 h treatment) was “significant enrichment”. For the same substance, the “histone H3K27me3 on the SOX2 promoter (ChIP)” value (SOX2 promoter; PA1, 1 hour rhBMP9) was “significantly enriched”, the “decrease in percentage live cells” value (HEY parental cells) was 50-65% and the “reduction in percentage live cells” value (HEYT30 cells; 10 nM) was 63%. The “reduction in percentage live cells” value (HEYT30 cells; 1 and 5 nM) was “about 35%” and the “decrease in percentage live cells” value (A2780ip2 cells) was 30%.
